In BindingDB's records for patent US11759530 (City of Hope, 2023):

Columns and labels:
Assay in all cases: No assay
PIM2 = PIM2 (Homo sapiens, UniProt Q9P1W9)
[1] = molecular target: Mitogen-activated protein kinase 14 (Homo sapiens, UniProt Q16539)
[2] = molecular target: Mitogen-activated protein kinase 11 (Homo sapiens, UniProt Q15759)
Sequence of Mitogen-activated protein kinase 11 (Q15759 whole entry): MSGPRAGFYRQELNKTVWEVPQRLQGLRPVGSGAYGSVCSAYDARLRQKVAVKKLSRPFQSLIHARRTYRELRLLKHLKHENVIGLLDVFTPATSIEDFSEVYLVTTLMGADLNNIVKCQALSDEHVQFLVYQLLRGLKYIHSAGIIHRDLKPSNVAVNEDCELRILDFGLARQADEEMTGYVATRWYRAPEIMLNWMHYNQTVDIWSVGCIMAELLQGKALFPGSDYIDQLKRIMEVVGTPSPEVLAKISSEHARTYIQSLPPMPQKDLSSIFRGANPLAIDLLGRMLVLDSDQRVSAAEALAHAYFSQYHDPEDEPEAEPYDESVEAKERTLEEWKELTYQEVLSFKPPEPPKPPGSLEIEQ

Sequence of Mitogen-activated protein kinase 14 (Q16539 whole entry): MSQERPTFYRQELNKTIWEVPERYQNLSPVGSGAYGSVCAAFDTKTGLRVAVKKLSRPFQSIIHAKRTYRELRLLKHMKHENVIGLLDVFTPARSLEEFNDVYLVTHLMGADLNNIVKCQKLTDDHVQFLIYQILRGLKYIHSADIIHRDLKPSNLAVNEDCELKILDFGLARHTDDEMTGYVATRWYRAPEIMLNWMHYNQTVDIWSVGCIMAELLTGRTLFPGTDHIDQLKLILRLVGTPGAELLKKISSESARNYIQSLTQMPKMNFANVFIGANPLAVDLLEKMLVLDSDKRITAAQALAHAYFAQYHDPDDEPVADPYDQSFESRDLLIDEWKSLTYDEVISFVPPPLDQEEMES
Sequence of PIM2 (Q9P1W9 whole entry): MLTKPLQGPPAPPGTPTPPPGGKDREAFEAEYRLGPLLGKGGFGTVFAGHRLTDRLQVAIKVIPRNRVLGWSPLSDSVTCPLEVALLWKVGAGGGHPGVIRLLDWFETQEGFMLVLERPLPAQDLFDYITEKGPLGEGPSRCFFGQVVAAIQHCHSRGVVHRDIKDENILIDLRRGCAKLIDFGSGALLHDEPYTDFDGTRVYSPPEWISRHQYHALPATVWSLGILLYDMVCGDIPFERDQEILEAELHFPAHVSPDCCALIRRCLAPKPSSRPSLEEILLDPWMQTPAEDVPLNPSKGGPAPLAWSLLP

Structure (SMILES) | IC50 (PIM2) [µM] | IC50 [1] [mM] | IC50 [2] [nM]
O=c1c(O)c(-c2ccc(O)c(O)c2)oc2cc(O)c(O)c(O)c12 [US11759530, Compound Table1.8] | 3.45 | – | –
NC(=O)c1ccc(-c2nc(-c3ccc4c(c3)OCCO4)c(-c3ccccn3)[nH]2)cc1 [US11759530, Compound Table1.3] | – | 12 | –
O=S(=O)(c1c(O)c(Cl)cc(Cl)c1Cl)c1c(O)c(Cl)cc(Cl)c1Cl [HL-7] | – | 0.00013 | 550
